Legend:
[1] = Cytotoxicity against human MDA-MB-231 cells assessed as reduction in cell viability after 48 hrs by MTT assay; type: functional, cell-based; settings: MDA-MB-231, 48 h
[2] = Cytotoxicity against human HCT116 cells assessed as reduction in cell viability after 48 hrs by MTT assay; type: functional, cell-based; settings: HCT-116, 48 h
[3] = Cytotoxicity against human SKOV3 cells assessed as reduction in cell viability after 48 hrs by MTT assay; type: functional, cell-based; settings: SK-OV-3, 48 h
[4] = Cytotoxicity against human WI38 cells assessed as reduction in cell viability after 48 hrs by MTT assay; type: toxicity, cell-based, WI-38
[5] = Cytotoxicity against human MCF10A cells assessed as reduction in cell viability after 48 hrs by MTT assay; type: toxicity, cell-based, MCF-10A

Row | SMILES | IC50 [1] | IC50 [2] | IC50 [3] | IC50 at 48 h [4] | IC50 at 48 h [5]
1 | Cc1ccc(C(=O)/C=C/c2ccc3c(c2)B(O)OC3)cc1 | 6.5 µM | 10.5 µM | 3.7 µM | 22.2 µM | 8.3 µM
2 | O=C(/C=C/c1ccc2c(c1)B(O)OC2)c1ccc(-c2ccccc2)cc1 | 6.4 µM | 9.5 µM | 4.9 µM | 18.3 µM | 20.7 µM
3 | O=C(/C=C/c1ccc2c(c1)B(O)OC2)c1ccco1 | 7.3 µM | 24.1 µM | 20.7 µM | 59 µM | 7.4 µM
4 | O=C(/C=C/c1ccc2c(c1)B(O)OC2)c1cccs1 | 4.6 µM | 14.2 µM | 10.4 µM | 26 µM | 13.8 µM
5 | Cn1cccc1C(=O)/C=C/c1ccc2c(c1)B(O)OC2 | > 100 µM | > 100 µM | 93.6 µM | > 100 µM | > 100 µM
6 | O=C(/C=C/c1ccc2c(c1)B(O)OC2)c1ccc([N+](=O)[O-])cc1 | 11.2 µM | 9.1 µM | 7.9 µM | 39.3 µM | 17.5 µM
7 | O=C(/C=C/c1ccc2c(c1)B(O)OC2)c1ccc(C(F)(F)F)cc1 | 9.2 µM | 6.3 µM | 3.7 µM | 22.6 µM | 22.3 µM
8 | CCOC(=O)c1ccc(C(=O)/C=C/c2ccc3c(c2)B(O)OC3)cc1 | 13 µM | 7.6 µM | 7.1 µM | 47.2 µM | 12.9 µM
9 | O=C(/C=C/c1ccc2c(c1)B(O)OC2)c1ccc(F)cc1 | 1.6 µM | 2.8 µM | 1.4 µM | 7.6 µM | 11.8 µM
10 | O=C(/C=C/c1ccc2c(c1)B(O)OC2)c1ccc(Cl)cc1 | 7.9 µM | 9.3 µM | 3.7 µM | 24.7 µM | 12.1 µM
11 | O=C(/C=C/c1ccc2c(c1)B(O)OC2)c1ccc(Br)cc1 | 9.5 µM | 9.9 µM | 4.5 µM | 36.7 µM | 27.8 µM
12 | CCc1ccc(C(=O)/C=C/c2ccc3c(c2)B(O)OC3)cc1 | 9.8 µM | 10.9 µM | 4.4 µM | 20.6 µM | 8.8 µM
13 | CSc1ccc(C(=O)/C=C/c2ccc3c(c2)B(O)OC3)cc1 | 9.8 µM | 10.3 µM | 4.1 µM | 54.3 µM | 7.4 µM
14 | O=C(/C=C/c1ccc2c(c1)B(O)OC2)c1ccc(OCc2ccccc2)cc1 | 5.3 µM | 12.1 µM | 6 µM | > 100 µM | 23.3 µM
15 | O=C(/C=C/c1ccc2c(c1)B(O)OC2)c1ccc(O)cc1 | 25.6 µM | 24.1 µM | 13 µM | > 100 µM | 24.8 µM
16 | Nc1ccc(C(=O)/C=C/c2ccc3c(c2)B(O)OC3)cc1 | 25.8 µM | 26.1 µM | 20.2 µM | 25.4 µM | 19.9 µM
17 | O=C(/C=C/c1ccc2c(c1)B(O)OC2)c1ccccc1F | 2.2 µM | 4.2 µM | 3.7 µM | 23.6 µM | 25.4 µM
18 | O=C(/C=C/c1ccc2c(c1)B(O)OC2)c1cccc(F)c1 | 3 µM | 6.7 µM | 4.8 µM | 26.7 µM | 15.8 µM
19 | Cc1cccc(C(=O)/C=C/c2ccc3c(c2)B(O)OC3)c1 | 4.5 µM | 6.7 µM | 2.9 µM | 16.7 µM | 15.9 µM

Row | SMILES | IC50 [1] | IC50 [2] | IC50 [3] | IC50 at 48 h [4] | IC50 at 48 h [5]
20 | Cc1ccc(C(=O)/C=C/c2ccc3c(c2)B(O)OC3)cc1C | 5.3 µM | 6.1 µM | 1.9 µM | 22 µM | 4.7 µM
21 | O=C(/C=C/c1ccc2c(c1)B(O)OC2)c1ccc(Cl)c(Cl)c1 | 3.4 µM | 3.2 µM | 1.8 µM | 12.5 µM | 14.9 µM
22 | O=C(/C=C/c1ccc2c(c1)B(O)OC2)c1ccc(O)c(O)c1 | 67.6 µM | > 100 µM | > 100 µM | > 100 µM | > 100 µM
23 | COc1ccccc1C(=O)/C=C/c1ccc2c(c1)B(O)OC2 | 3.1 µM | 5 µM | 2.6 µM | 21.7 µM | 9.1 µM
24 | COc1cccc(C(=O)/C=C/c2ccc3c(c2)B(O)OC3)c1 | 2.1 µM | 5 µM | 2.6 µM | 14.6 µM | 7.4 µM
25 | COCOc1ccccc1C(=O)/C=C/c1ccc2c(c1)B(O)OC2 | 10.2 µM | 10.2 µM | 6.5 µM | 27 µM | 11.7 µM
26 | COCOc1cccc(C(=O)/C=C/c2ccc3c(c2)B(O)OC3)c1 | 4.5 µM | 13.3 µM | 11.7 µM | 33.2 µM | 48.1 µM
27 | Nc1cccc(C(=O)/C=C/c2ccc3c(c2)B(O)OC3)c1 | 3.2 µM | 4.5 µM | 7.4 µM | 25.3 µM | 19.6 µM
28 | O=C(/C=C/c1ccc2c(c1)B(O)OC2)c1ccccc1O | 16.9 µM | 77.9 µM | 48.8 µM | > 100 µM | 53.7 µM
29 | O=C(/C=C/c1ccc2c(c1)B(O)OC2)c1cccc(O)c1 | 2.7 µM | 6.5 µM | 3.8 µM | 26.4 µM | 25.3 µM
30 | COc1ccc(C(=O)/C=C/c2ccc3c(c2)B(O)OC3)cc1OC | 13.2 µM | 12.2 µM | 4.8 µM | 33.5 µM | 13.5 µM
31 | COc1ccc(C(=O)/C=C/c2ccc3c(c2)B(O)OC3)c(OC)c1 | 11.2 µM | 16.2 µM | 6.1 µM | 86.3 µM | 12.2 µM
32 | COc1cc(C(=O)/C=C/c2ccc3c(c2)B(O)OC3)cc(OC)c1OC | 10.6 µM | 7.9 µM | 5.7 µM | 18.5 µM | 48.5 µM
33 | O=C(/C=C/c1ccc2c(c1)B(O)OC2)c1ccc2c(c1)OCCO2 | 7.9 µM | 10.3 µM | 7.3 µM | 30.2 µM | 11.7 µM
34 | COc1cc(C(=O)/C=C/c2ccc3c(c2)B(O)OC3)ccc1[N+](=O)[O-] | 11.4 µM | 4.1 µM | 1.7 µM | 26 µM | 3.6 µM
35 | COc1cc(C(=O)/C=C/c2ccc3c(c2)B(O)OC3)ccc1N | 24.3 µM | 27.9 µM | 1.7 µM | > 100 µM | 17.6 µM
36 | O=C(O)c1ccc(C(=O)/C=C/c2ccc3c(c2)B(O)OC3)cc1 | > 100 µM | > 100 µM | > 100 µM | > 100 µM | > 100 µM
37 | O=C(/C=C/c1ccc2c(c1)B(O)OC2)c1cccnc1 | 11.4 µM | 20.5 µM | 18.5 µM | 76.2 µM | 34.4 µM
38 | COc1cccc2c1C(=O)c1c(O)c3c(c(O)c1C2=O)C[C@@](O)(C(=O)CO)C[C@@H]3O[C@H]1C[C@H](N)[C@H](O)[C@H](C)O1 [DOXORUBICIN] |  | 0.31 µM | 0.42 µM | 9 µM | 0.06 µM

From ChEMBL document CHEMBL3867490, “Chalcone-benzoxaborole hybrids as novel anticancer agents” (Bioorg Med Chem Lett, 2016)
